# Laboratory results: ChEMBL document CHEMBL3046580, “Synthesis of Some 2-Aryloxymethyl-1, 3, 4-thiadiazolo[2, 3-b]-quinazolin-4-ones and 2-Aryloxymethyl-5-substituted-1, 3, 4-thiadiazolo[3, 2-a]-s-triazin-7-thiones as Potential Biocides” (1990)
# How the values were obtained:
# Format in all cases: functional
# [1] = tested on: Setaria viridis; test: Herbicidal activity against Setaria viridis (green foxtail) assessed as killing at 6 kg/ha by post-emergent activity assay
# [2] = tested on: Abutilon theophrasti; test: Herbicidal activity against Abutilon theophrasti (velvetleaf) assessed as killing at 6 kg/ha by post-emergent activity assay
# [3] = tested on: Echinochloa crus-galli; test: Herbicidal activity against Echinochloa crus-galli (barnyard grass) assessed as killing at 6 kg/ha by post-emergent activity assay
# [4] = tested on: Sorghum halepense; test: Herbicidal activity against Sorghum halepense (Johnson grass) assessed as killing at 6 kg/ha by post-emergent activity assay
# [5] = tested on: Triticum aestivum; test: Herbicidal activity against Triticum aestivum (wheat) assessed as killing at 6 kg/ha by post-emergent activity assay
# [6] = tested on: Bipolaris oryzae; test: Antifungal activity against Bipolaris oryzae assessed as fungus colony inhibition at 10 ppm measured after 96 hr by agar dilution method
# [7] = tested on: Bipolaris oryzae; test: Antifungal activity against Bipolaris oryzae assessed as fungus colony inhibition at 100 ppm measured after 96 hr by agar dilution method
# [8] = tested on: Bipolaris oryzae; test: Antifungal activity against Bipolaris oryzae assessed as fungus colony inhibition at 1000 ppm measured after 96 hr by agar dilution method
# [9] = tested on: Aspergillus niger; test: Antifungal activity against Aspergillus niger assessed as fungus colony inhibition at 10 ppm measured after 96 hr by agar dilution method
# [10] = tested on: Aspergillus niger; test: Antifungal activity against Aspergillus niger assessed as fungus colony inhibition at 100 ppm measured after 96 hr by agar dilution method
# [11] = tested on: Aspergillus niger; test: Antifungal activity against Aspergillus niger assessed as fungus colony inhibition at 1000 ppm measured after 96 hr by agar dilution method
Compound,Activity [1] [%],Activity [2] [%],Activity [3] [%],Activity [4] [%],Activity [5] [%],inhibition at 10 ppm [6] [%],inhibition at 100 ppm [7] [%],inhibition at 1000 ppm [8] [%],inhibition at 10 ppm [9] [%],inhibition at 100 ppm [10] [%],inhibition at 1000 ppm [11] [%]
O=c1c2ccccc2nc2sc(COc3ccccc3Cl)nn12,70,20,20,40,60,30.8,40.1,61.4,19.2,30.2,51.3
S=c1nc(COc2ccc(Cl)cc2Cl)n2nc(COc3ccc(Cl)cc3Cl)sc2n1,100,100,100,100,20,61.4,78.6,90.4,64.5,74.4,88.6
S=c1nc(COc2ccc(Cl)cc2Cl)n2nc(COc3ccc(Cl)cc3)sc2n1,20,30,30,40,50,60.6,75.4,88.2,68.4,74.2,87.2
Cc1ccc(OCc2nn3c(-c4ccc(Cl)cc4)nc(=S)nc3s2)c(C)c1,90,90,90,80,0,31.2,49.1,60,20.4,31.4,52.3
Cc1ccc(OCc2nn3c(C)nc(=S)nc3s2)c(C)c1,10,20,40,60,50,27.4,39.3,59.5,18.6,30,51.4
O=C(COc1ccc(Cl)cc1Cl)NC(=S)Nc1nnc(COc2ccc(Cl)cc2)s1,,,,,,24.2,36.2,57.2,13,25.4,47
O=C(COc1ccc(Cl)cc1Cl)NC(=S)Nc1nnc(COc2ccc(Cl)cc2Cl)s1,,,,,,21.9,32,54,12.4,25.2,46.4
Cc1ccc(OCc2nnc(NC(=S)NC(=O)c3ccc(Cl)cc3)s2)c(C)c1,,,,,,22.8,32.4,55.2,18.4,29,50.3
CC(=O)NC(=S)Nc1nnc(COc2ccc(C)cc2C)s1,,,,,,20.2,38.4,60.2,20.5,31.4,55.2
O=c1c2ccccc2nc2sc(COc3ccc(Cl)cc3Cl)nn12,30,20,80,60,50,23.4,31.8,54.4,12.6,25,43.1
Cc1ccc(OCc2nn3c(=O)c4ccccc4nc3s2)cc1,40,10,10,50,40,25.2,35,56.2,13.7,25.4,46
Cc1ccc(OCc2nn3c(=O)c4ccccc4nc3s2)cc1C,50,50,50,60,40,21.3,38.6,50.2,12.8,24.4,42.2
O=C(O)c1ccccc1Nc1nnc(COc2ccccc2Cl)s1,,,,,,22.2,30.4,52.4,14,25.8,47.3
Cc1ccc(OCc2nnc(Nc3ccccc3C(=O)O)s2)cc1,,,,,,22.2,39.1,59.1,20.9,31,52.2
O=C(O)c1ccccc1Nc1nnc(COc2ccc(Cl)cc2Cl)s1,,,,,,60.8,75.3,87.4,68.5,73,84.8
Cc1ccc(OCc2nnc(Nc3ccccc3C(=O)O)s2)cc1C,,,,,,25.2,30.4,57.4,19,29.1,50.2
COC(=O)Nc1nc2ccccc2[nH]1 [CARBENDAZIM],,,,,,78.3,85.2,98,78.6,84.4,98.8
